Several values for one entry are separate records, joined by “and”; a condition that tells them apart may be missing. Identical values can stand only once.

Test [1] has as its system 3′-dATP. Description: Test (1): 3′-dATP added during in vitro transcription, amount of RNA synthesized (SYBER Green II gel image). Format: biochemical. Conditions: 3′-dATP concentration 0.024 mM, wild form of T7 RNA polymerase taken as 1, inverse of RNA synthesis level. As to the method:
(§1) The ability to incorporate 3′-dATP of the Δ type enzyme of purified T7 RNA polymerase was compared to that of the wild type and F644Y mutation.
In this method, 3′-dATP was added during an in vitro transcription reaction and the synthesis level was determined by comparison with synthesis impairment. This will be described in greater detail. The template employed was pBluescriptII (Stratagene) pretreated with the restriction enzyme ScaI (made by Nippon Gene). The reaction conditions were: 40 mM Tris-HCl, pH 8.0, 25 mM NaCl, 8 mM MgCl2, 2 mM spermidine-(HCl)3, and 5 mM DTT. The concentration of nucleotides ATP, CTP, GTP, and UTP was 0.5 mM. Of these, ATP was replaced with 3′-dATP (Sigma) in ranges of 0.006 mM, 0.008 mM, 0.012 mM, and 0.024 mM. The above purified enzymes were added to 20 μL of this solution and the reaction was conducted for 30 to 60 min at 37° C. At the conclusion of the reaction, 4 μL of 5× gel loading buffer was added (15% Ficoll, 0.1% BPB, 0.1% XC, 0.5% SDS, and 0.1 M EDTA). The entire solution was then subjected to electrophoresis in a 1% modified agarose gel containing formaldehyde. At the conclusion of electrophoresis, 10,000-fold dilution was conducted with SYBER Green II (made by Molecular Probe Co.) and dying was conducted for 20 to 40 min according to a protocol of addition to the product. A Fluoro S Multiimager (BiORad Co.) was then employed to irradiate ultraviolet radiation and pick up the fluorescent image. Multianalyst, an attached image analyzing software package, was used to determine the amount of RNA that had been synthesized from the image picked up. The various values of the results were compared. An increase in ability to incorporate 3′-dATP should result in a drop in the synthesis level. Accordingly, a comparison was made with a control, and the inverse thereof was employed as indicator of how readily 3′-dATP was incorporated.

The subject of test [2] is 3′-dATP. Kind of test: Test (2): 3′-dATP added during in vitro transcription with Biotin-labeled CTP, chemoluminescent signal detection. Format: biochemical. Conditions: 3′-dATP concentration 0.00125 mM, wild form taken as 1, average of three runs. As to the method:
as §1
In this method, 3′-dATP was added during an in vitro transcription reaction and the synthesis level was determined by comparison with synthesis impairment. This will be described in greater detail. The template employed was pBluescriptII (Stratagene) pretreated with the restriction enzyme ScaI (made by Nippon Gene). The reaction conditions were: 40 mM Tris-HCl, pH 8.0, 25 mM NaCl, 8 mM MgCl2, 2 mM spermidine-(HCl)3, and 5 mM DTT. The concentration of ribonucleotides rATP, rCTP, rGTP, and rUTP was 0.5 mM. A 0.1 mM quantity of Biotin-labeled CTP was added and 3′-dATP was added in ranges of 0.00125 mM, 0.0025 mM, and 0.005 mM. A 25 U quantity of enzymes purified as set forth above were added to 10 μL of this solution and the reaction was conducted for 60 min at 37° C. At the conclusion of the reaction, 1 μL of 10× gel loading buffer (1 mM EDTA, 1% SDS, 50% glycerol, and 0.05% BPB) was added. The entire solution was then subjected to electrophoresis in a 1% modified formamide gel. At the conclusion of electrophoresis, northern hybridization was conducted, the synthesized product was transcribed onto a nylon membrane, and signal detection was conducted based on a chemoluminescent substrate according to a protocol of anti-SA-AP antibody (made by Oriental Yeast Co., diluted 20,000-fold) and CDP-Star™ (made by Roche Co.). A Fluoro S Multiimager (BioRad Co.) and Multianalyst, an attached image analyzing software package, were then employed to determine the level of the signal detected.

Test [3] deals with fluorescent-labeled 3′-deoxynucleotide. Kind of test: Ability to incorporate fluorescent-labeled 3′-deoxynucleotide, fluorescent signal intensity on ABI 377 XL Sequencer. The settings on record: for (1) Average signal intensity U: Bodipy(564/570)-3′dUTP; for (1) Average signal intensity U / (1) Average signal intensity C / (1) Average signal intensity G / (1) Average signal intensity A: 100 units of enzyme (50 units for F644Y/Δ1); for (1) Average signal intensity C: Bodipy(581/591)-3′dCTP; for (1) Average signal intensity G: Bodipy(FL)-3′dGTP; for (1) Average signal intensity A: Bodipy(R6G)-3′dATP; for (2) Signal intensity per unit of enzyme G: conversion of (1) per unit of enzyme; for Signal intensity per unit of enzyme A, value in parentheses relative to wild enzyme / Signal intensity per unit of enzyme C, value in parentheses relative to wild enzyme / Signal intensity per unit of enzyme G, value in parentheses relative to wild enzyme / Signal intensity per unit of enzyme U, value in parentheses relative to wild enzyme: relative to a value of 1 for the signal intensity of wild enzyme. Format: biochemical. As to the method:
A comparison was conducted of the ability to incorporate florescent-labeled 3′-deoxynucleotide of Δ-type enzyme of purified T7 RNA polymerase.
This method was conducted in accordance with the method of Sasaki et al. (Sasaki, N., et al. Gene, 222(1): 17-24 (1998)). In greater detail, pBluescriptII DNA was employed as template. A solution obtained by mixing Bodipy(R6G)-3′dATP, Bodipy(FL)-3′dGTP, Bodipy(581/591)-3′dCTP, Bodipy(564/570)-3′dUTP, ATP, GTP, CTP, and UTP in prescribed proportions was employed to conduct reactions differing only with regard to the T7 RNA polymerase employed. The enzymes employed were 100 units of T7 RNA polymerase (wild type) and T7 RNA polymerase F644Y; and 50 units of T7 RNA polymerase F644Y/Δ1. The reaction product was subjected to electrophoresis with an ABI 377 XL Sequencer. The average value of the fluorescent signal intensity was compared for each nucleotide.
Column (2) is a conversion of the value of (1) per unit of enzyme. Numbers shown in parentheses denote values relative to a value of “1” for the signal intensity of wild enzyme. […] Since the ABI 377 XL Sequencer is not a device for quantitative analysis, and operations is conducted on an extremely small amount of samples, large errors are to be expected.

The subject of a further test is 3′-deoxy nucleotide. Conditions: Izawa, M., et al. J. Biol. Chem., 273 (23): 14242 (1998); cited from earlier work.

For “T7 RNA polymerase F644Y: mutant T7 RNA polymerase, tyrosine substituted for phenylalanine at residue 644; plasmid pT7RF644Y”, in the test on 3′-dATP [1], the “Relative ability to incorporate 3′-dATP” value turned out to be 1.45. Besides, in the test on 3′-dATP [2], the “Relative ability to incorporate 3′-dATP” value is reported as 1.20 ± 0.3. The “Relative ability to incorporate 3′-dATP” value with 3′-dATP [2] (listed as F644Y) is 1.20±0.3 and 1.20. In test [3], the “(1) Average signal intensity U” value is 134, the “(1) Average signal intensity C” value is given as 136, the “(1) Average signal intensity G” value was found to be 199 and the “(1) Average signal intensity A” value was found to be 74. Moreover, in test [3], the “(2) Signal intensity per unit of enzyme G” value is reported as 2.0; the “Signal intensity per unit of enzyme A, value in parentheses relative to wild enzyme” value is reported as “(1.1)”; the “Signal intensity per unit of enzyme C, value in parentheses relative to wild enzyme” value is recorded as “(0.9)”; the “Signal intensity per unit of enzyme G, value in parentheses relative to wild enzyme” value is on record as “(0.9)”. Further, the “Signal intensity per unit of enzyme U, value in parentheses relative to wild enzyme” value in test [3] is listed as “(1.1)”. Moreover, in the test on 3′-deoxy nucleotide, the “Increase in ability to incorporate 3′-deoxy nucleotide relative to the corresponding wild form” value was “about fivefold”.

B1: T7 RNA polymerase F644Y/Δ1: T7 RNA polymerase F644Y deficient in amino acids 172 and 173; plasmid pT7RF644Y/Δ1, FERM BP-7619 (protein, UniProt P00573 1-883, looked up, variant F644Y del172-173)
T7 RNA polymerase: MNTINIAKNDFSDIELAAIPFNTLADHYGERLAREQLALEHESYEMGEARFRKMFERQLKAGEVADNAAAKPLITTLLPKMIARINDWFEEVKAKRGKRPTAFQFLQEIKPEAVAYITIKTTLACLTSADNTTVQAVASAIGRAIEDEARFGRIRDLEAKHFKKNVEEQLNVGHVYKKAFMQVVEADMLSKGLLGGEAWSSWHKEDSIHVGVRCIEMLIESTGMVSLHRQNAGVVGQDSETIELAPEYAEAIATRAGALAGISPMFQPCVVPPKPWTGITGGGYWANGRRPLALVRTHSKKALMRYEDVYMPEVYKAINIAQNTAWKINKKVLAVANVITKWKHCPVEDIPAIEREELPMKPEDIDMNPEALTAWKRAAAAVYRKDKARKSRRISLEFMLEQANKFANHKAIWFPYNMDWRGRVYAVSMFNPQGNDMTKGLLTLAKGKPIGKEGYYWLKIHGANCAGVDKVPFPERIKFIEENHENIMACAKSPLENTWWAEQDSPFCFLAFCFEYAGVQHHGLSYNCSLPLAFDGSCSGIQHFSAMLRDEVGGRAVNLLPSETVQDIYGIVAKKVNEILQADAINGTDNEVVTVTDENTGEISEKVKLGTKALAGQWLAYGVTRSVTKRSVMTLAYGSKEYGFRQQVLEDTIQPAIDSGKGLMFTQPNQAAGYMAKLIWESVSVTVVAAVEAMNWLKSAAKLLAAEVKDKKTGEILRKRCAVHWVTPDGFPVWQEYKKPIQTRLNLMFLGQFRLQPTINTNKDSEIDAHKQESGIAPNFVHSQDGSHLRKTVVWAHEKYGIESFALIHDSFGTIPADAANLFKAVRETMVDTYESCDVLADFYDQFADQLHESQLDKMPALPAKGNLNLRDILESDFAFA
For the molecule B1, in the test on 3′-dATP [1], the “Relative ability to incorporate 3′-dATP” value came to 15.5. For the same molecule, the “Relative ability to incorporate 3′-dATP” value with 3′-dATP [2] (listed as F644Y/Δ1) is 2.30±0.3 and 2.30. Moreover, in the test with 3′-dATP [2] (listed as T7 RNA polymerase F644Y/Δ 1), the “Relative ability to incorporate 3′-dATP” value is on record as 2.30 ± 0.3. For the same molecule, in test [3], the “(1) Average signal intensity U” value is reported as 332, the “(1) Average signal intensity C” value was found to be 317, the “(1) Average signal intensity G” value stood at 446 and the “(1) Average signal intensity A” value was 156. In test [3], the “(2) Signal intensity per unit of enzyme G” value was 8.92; the “Signal intensity per unit of enzyme A, value in parentheses relative to wild enzyme” value is reported as “(2.3)”; the “Signal intensity per unit of enzyme C, value in parentheses relative to wild enzyme” value was “(2.2)”; the “Signal intensity per unit of enzyme G, value in parentheses relative to wild enzyme” value is “(4.0)”. In test [3], the “Signal intensity per unit of enzyme U, value in parentheses relative to wild enzyme” value is “(2.8)”.

Values taken from patent US20040234981A1, “Method of determining dna base sequence” (priority 2001, published 2004).
